The target of this test is T1, BTK (Homo sapiens, UniProt Q06187).
T1 construct: endogenous in cells; host or cells: TMD-8 cells
Briefly: BTK degradation in TMD-8 cells, HTRF assay after 6 h treatment. Format: cell-based. To be noted: for DC50: IC50 (DC50) of BTK degradation; for Dmax: TMD8, maximum percentage of inhibition (degradation). The method, then:
TMD-8 cells are treated with compounds diluted in 0.2% DMSO, dilution is done according to the following protocol: (1) make 500× stock solution in DMSO from 1 mM by 6-fold dilution, total 8 doses were included; (2) make 2× solution in cell culture medium by transferring 0.5 μl 500× stock solution into 125 μl medium; (3) 15 μl of 2× solution is added to cells and incubate for 6 h.
After 6 h treatment, add 10 μl 4×lysis buffer to each well; seal the plate and incubate 30 min at room temperature on a plate shaker; Once the cells are lysed, 16 μL of cell lysate are transferred to a PE 384-well HTRF detection plate; 4 μL of pre-mixed HTRF antibodies are added to each well; Cover the plate with a plate sealer, spin 1000 rpm for 1 min, Incubate overnight at room temperature; Read on BMG PheraStar with HTRF protocol (337 nm-665 nm-620 nm).
The IC50 (DC50) value of a compound can be obtained by fitting the following equation
Y=Bottom+(TOP−Bottom)/(1+((IC50/X)^hillslope))
Wherein, X and Y are known values, and IC50, Hillslope, Top and Bottom are the parameters obtained by fitting with software. Y is the inhibition percentage (calculated from the equation), X is the concentration of the compound; IC50 is the concentration of the compound when the 50% inhibition is reached. The smaller the IC50 value is, the stronger the inhibitory ability of the compound is. Vice versa, the higher the IC50 value is, the weaker the ability the inhibitory ability of the compound is; Hillslope represents the slope of the fitted curve, generally around 1*; Bottom represents the minimum value of the curve obtained by data fitting, which is generally 0%±20%; Top represents the maximum value of the curve obtained by data fitting, which is generally 100%±20%. The experimental data were fitted by calculating and analyzing with Dotmatics data analysis software.

One may read the DC50 as the midpoint of the concentration-degradation curve. A lower DC50 goes with a more potent degrader. By Dmax is commonly meant the greatest extent of degradation seen.

T1 sequence (Q06187 whole entry): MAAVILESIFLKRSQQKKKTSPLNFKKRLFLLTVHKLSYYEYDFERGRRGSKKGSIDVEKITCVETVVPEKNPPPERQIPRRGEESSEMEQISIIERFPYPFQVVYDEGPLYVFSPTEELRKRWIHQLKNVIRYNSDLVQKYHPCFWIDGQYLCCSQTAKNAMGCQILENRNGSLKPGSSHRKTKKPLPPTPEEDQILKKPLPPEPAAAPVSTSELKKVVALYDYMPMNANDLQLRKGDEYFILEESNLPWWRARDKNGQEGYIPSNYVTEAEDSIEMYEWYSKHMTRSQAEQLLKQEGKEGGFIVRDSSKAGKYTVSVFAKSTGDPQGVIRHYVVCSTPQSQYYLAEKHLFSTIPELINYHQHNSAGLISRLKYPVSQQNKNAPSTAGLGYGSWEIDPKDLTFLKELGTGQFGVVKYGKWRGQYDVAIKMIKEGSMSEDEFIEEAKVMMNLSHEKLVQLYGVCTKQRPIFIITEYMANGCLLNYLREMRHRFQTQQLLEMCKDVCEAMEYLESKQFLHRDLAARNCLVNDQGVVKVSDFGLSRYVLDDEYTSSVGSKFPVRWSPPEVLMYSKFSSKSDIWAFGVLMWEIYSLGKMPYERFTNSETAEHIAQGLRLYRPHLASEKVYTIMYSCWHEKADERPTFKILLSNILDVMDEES

For `Cc1cc(-c2n[nH]c3ncc(-c4ccc(C5CCN(CC6CCN(c7ccc(N8CCC(=O)NC8=O)cc7)CC6)CC5)cc4)cc23)ccc1CNC(=O)c1noc(C(C)(C)C)n1` [Example 1, 5-(tert-butyl)-N-(4-(5-(4-(1-((1-(4-(2,4-dioxotetrahydropyrimidin-1(2H)-yl)phenyl)piperidin-4-yl)methyl)piperidin-4-yl)phenyl)-1H-pyrazolo[3,4-b]pyridin-3-yl)-2-methylbenzyl)-1,2,4-oxadiazole-3-carboxamide], the DC50 was found to be 0.978 nM and the Dmax amounted to 96.7%.
The corresponding values for `Cc1cc(-c2n[nH]c3ncc(-c4ccc(C5CCN(CCCOc6ccc(NC7CCC(=O)NC7=O)cc6)CC5)cc4)cc23)ccc1CNC(=O)c1noc(C(C)(C)C)n1` (centres unmarked) [Example 2, 5-(tert-butyl)-N-(4-(5-(4-(1-(3-(4-((2,6-dioxopiperidin-3-yl)amino)phenoxy)propyl)piperidin-4-yl)phenyl)-1H-pyrazolo[3,4-b]pyridin-3-yl)-2-methylbenzyl)-1,2,4-oxadiazole-3-carboxamide] are 0.953 nM and 96.2%.
In the same order, the values of `Cc1cc(-c2n[nH]c3ncc(-c4ccc(C5CCN(CCc6ccc(C7CCC(=O)NC7=O)cc6)CC5)cc4)cc23)ccc1CNC(=O)c1noc(C(C)(C)C)n1` (centres unmarked) [Example 3, 5-(tert-butyl)-N-(4-(5-(4-(1-(4-(2,6-dioxopiperidin-3-yl)phenethyl)piperidin-4-yl)phenyl)-1H-pyrazolo[3,4-b]pyridin-3-yl)-2-methylbenzyl)-1,2,4-oxadiazole-3-carboxamide] are 0.714 nM and 97.1%.
On to `Cc1cc(-c2n[nH]c3ncc(-c4ccc(C5CCN(CC6CCN(c7ccc(N8CCC(=O)NC8=O)cc7)CC6)CC5)cc4)cc23)ccc1CNC(=O)c1nc(C(C)(C)C)no1` [Example 4, 3-(tert-butyl)-N-(4-(5-(4-(1-((1-(4-(2,4-dioxotetrahydropyrimidin-1(2H)-yl)phenyl)piperidin-4-yl)methyl)piperidin-4-yl)phenyl)-1H-pyrazolo[3,4-b]pyridin-3-yl)-2-methylbenzyl)-1,2,4-oxadiazole-5-carboxamide], for which half-maximal degradation (DC50) was put at 1.19 nM and the Dmax stood at 96.7%.
In the same order, the values of `Cc1cc(-c2n[nH]c3ncc(-c4ccc(C5CCN(CCC6CCN(c7ccc(N8CCC(=O)NC8=O)cc7)CC6)CC5)cc4)cc23)ccc1CNC(=O)c1nc(C(C)(C)C)no1` [Example 5, 3-(tert-butyl)-N-(4-(5-(4-(1-(2-(1-(4-(2,4-dioxotetrahydropyrimidin-1(2H)-yl)phenyl)piperidin-4-yl)ethyl)piperidin-4-yl)phenyl)-1H-pyrazolo[3,4-b]pyridin-3-yl)-2-methylbenzyl)-1,2,4-oxadiazole-5-carboxamide] are 1.55 nM and 97%.
As to `Cc1cc(-c2n[nH]c3ncc(-c4ccc(C5CCN(CCc6ccc(N7CCC(=O)NC7=O)cc6)CC5)cc4)cc23)ccc1CNC(=O)c1noc(C(C)(C)C)n1` [Example 6, 5-(tert-butyl)-N-(4-(5-(4-(1-(4-(2,4-dioxotetrahydropyrimidin-1(2H)-yl)phenethyl)piperidin-4-yl)phenyl)-1H-pyrazolo[3,4-b]pyridin-3-yl)-2-methylbenzyl)-1,2,4-oxadiazole-3-carboxamide], the DC50 came to 2.94 nM and the Dmax was 97%.
The corresponding values for `Cc1cc(-c2n[nH]c3ncc(-c4ccc(CCN5CCC(c6ccc(C7CCC(=O)NC7=O)cc6)CC5)cc4)cc23)ccc1CNC(=O)c1noc(C(C)(C)C)n1` (centres unmarked) [Example 8, 3-(tert-butyl)-N-(4-(5-(4-(2-(4-(4-(2,6-dioxopiperidin-3-yl)phenyl)piperidin-1-yl)ethyl)phenyl)-1H-pyrazolol[3,4-b]pyridin-3-yl)-2-methylbenzyl)-1,2,4-oxadiazole-5-carboxamide] are 1.4 nM and 101%.
In the same order, the values of `Cc1cc(-c2n[nH]c3ncc(-c4ccc(C5CCN(CCc6ccc(C7CCC(=O)NC7=O)cc6)CC5)cc4)cc23)ccc1CNC(=O)c1nc(C(C)(C)C)no1` (centres unmarked) [Example 9, 3-(tert-butyl)-N-(4-(5-(4-(1-(4-(2,6-dioxopiperidin-3-yl)phenethyl)piperidin-4-yl)phenyl)-1H-pyrazolo[3,4-b]pyridin-3-yl)-2-methylbenzyl)-1,2,4-oxadiazole-5-carboxamide] are 1.9 nM and 100%.
`CC(C)(C)c1noc(C(=O)NCc2ccc(-c3n[nH]c4ncc(-c5ccc(C6CCN(CC7CCN(c8ccc(N9CCC(=O)NC9=O)cc8)CC7)CC6)cc5)cc34)cc2F)n1` [Example 10, 3-(tert-butyl)-N-(4-(5-(4-(1-((1-(4-(2,4-dioxotetrahydropyrimidin-1(2H)-yl)phenyl)piperidin-4-yl)methyl)piperidin-4-yl)phenyl)-1H-pyrazolo[3,4-b]pyridin-3-yl)-2-fluorobenzyl)-1,2,4-oxadiazole-5-carboxamide]: the DC50 came to 10.8 nM and the Dmax worked out at 97.1%.
In the same order, the values of `CC(C)(C)c1noc(C(=O)NCc2ccc(-c3n[nH]c4ncc(-c5ccc(N6CCN(CC7CCN(c8ccc(N9CCC(=O)NC9=O)cc8)CC7)CC6)cc5)cc34)cc2F)n1` [Example 11, 3-(tert-butyl)-N-(4-(5-(4-(4-((1-(4-(2,4-dioxotetrahydropyrimidin-1(2H)-yl)phenyl)piperidin-4-yl)methyl)piperazin-1-yl)phenyl)-1H-pyrazolo[3,4-b]pyridin-3-yl)-2-fluorobenzyl)-1,2,4-oxadiazole-5-carboxamide] are 5.98 nM and 94.1%.
The corresponding values for `CC(C)(C)c1noc(C(=O)NCc2ccc(-c3n[nH]c4ncc(-c5ccc(C6CCN(CCC7CCN(c8ccc(N9CCC(=O)NC9=O)cc8)CC7)CC6)cc5)cc34)cc2F)n1` [Example 12, 3-(tert-butyl)-N-(4-(5-(4-(1-(2-(1-(4-(2,4-dioxotetrahydropyrimidin-1(2H)-yl)phenyl)piperidin-4-yl)ethyl)piperidin-4-yl)phenyl)-1H-pyrazolo[3,4-b]pyridin-3-yl)-2-fluorobenzyl)-1,2,4-oxadiazole-5-carboxamide] are 5.17 nM and 95.7%.
In the same order, the values of `CC(C)(C)c1noc(C(=O)NCc2ccc(-c3n[nH]c4ncc(-c5ccc(C6CCN(CCc7ccc(N8CCC(=O)NC8=O)cc7)CC6)cc5)cc34)cc2F)n1` [Example 13, 3-(tert-butyl)-N-(4-(5-(4-(1-(4-(2,4-dioxotetrahydropyrimidin-1(2H)-yl)phenethyl)piperidin-4-yl)phenyl)-1H-pyrazolo[3,4-b]pyridin-3-yl)-2-fluorobenzyl)-1,2,4-oxadiazole-5-carboxamide] are 25.7 nM and 93%.
Consider `CC(C)(C)c1noc(C(=O)NCc2ccc(-c3n[nH]c4ncc(-c5ccc(C6CCN(CCc7ccc(C8CCC(=O)NC8=O)cc7)CC6)cc5)cc34)cc2F)n1` (centres unmarked) [Example 14, 3-(tert-butyl)-N-(4-(5-(4-(1-(4-(2,6-dioxopiperidin-3-yl)phenethyl)piperidin-4-yl)phenyl)-1H-pyrazolo[3,4-b]pyridin-3-yl)-2-fluorobenzyl)-1,2,4-oxadiazole-5-carboxamide], for which the DC50 was determined as 4.74 nM and the Dmax came to 95.2%.
The corresponding values for `CC(C)(C)c1nc(C(=O)NCc2ccc(-c3n[nH]c4ncc(-c5ccc(C6CCN(CC7CCN(c8ccc(N9CCC(=O)NC9=O)cc8)CC7)CC6)cc5)cc34)cc2F)no1` [Example 15, 5-(tert-butyl)-N-(4-(5-(4-(1-((1-(4-(2,4-dioxotetrahydropyrimidin-1(2H)-yl)phenyl)piperidin-4-yl)methyl)piperidin-4-yl)phenyl)-1H-pyrazolo[3,4-b]pyridin-3-yl)-2-fluorobenzyl)-1,2,4-oxadiazole-3-carboxamide] are 6.38 nM and 94.9%.
In the same order, the values of `CC(C)(C)c1noc(C(=O)NCc2ccc(-c3n[nH]c4ncc(-c5ccc(C6CCN(CCC7CCN(c8ccc(N9CCC(=O)NC9=O)c(F)c8)CC7)CC6)cc5)cc34)cc2F)n1` [Example 16, 3-(tert-butyl)-N-(4-(5-(4-(1-(2-(1-(4-(2,4-dioxotetrahydropyrimidin-1(2H)-yl)-3-fluorophenyl)piperidin-4-yl)ethyl)piperidin-4-yl)phenyl)-1H-pyrazolo[3,4-b]pyridin-3-yl)-2-fluorobenzyl)-1,2,4-oxadiazole-5-carboxamide] are 9.04 nM and 96.4%.
The corresponding values for `CC(C)(C)c1noc(C(=O)NCc2ccc(-c3n[nH]c4ncc(-c5ccc(N6CCN(CCC7CCN(c8ccc(N9CCC(=O)NC9=O)c(F)c8)CC7)CC6)cc5)cc34)cc2F)n1` [Example 17, 3-(tert-butyl)-N-(4-(5-(4-(4-(2-(1-(4-(2,4-dioxotetrahydropyrimidin-1(2H)-yl)-3-fluorophenyl)piperidin-4-yl)ethyl)piperazin-1-yl)phenyl)-1H-pyrazolo[3,4-b]pyridin-3-yl)-2-fluorobenzyl)-1,2,4-oxadiazole-5-carboxamide] are 5.9 nM and 96.4%.
